Measurements taken from patent US11708348B2, “Protease inhibitors for treatment of coronavirus infections” (The Scripps Research Institute, priority 2021, dated 2023).
Like-named read-outs stand apart in the source and are kept apart here.

Test system: SARS-CoV-2 strain USA-WA1/2020
Test: microbe, parasite or virus in culture
Type: cell-based
Settings: Severe acute respiratory syndrome coronavirus 2, HeLa-ACE2, 24 h, HeLa-ACE2 cells, SARS-CoV-2 infection, 24 h, read-out: EC50, uM (Hela)

Structure (SMILES)	EC50 (class symbols) [µM]	EC50 [µM]
O=C1NCC[C@H]1C[C@H](NC(=O)[C@@H]1CC2(CC2)CN1C(=O)C(O)CC(F)(F)F)C(=O)COC(F)(F)F (stereo partly drawn) [Compound 390, (6S)-N-((S)-3-oxo-1-((S)-2-oxopyrrolidin-3-yl)-4-(trifluoromethoxy)butan-2-yl)-5-(4,4,4-trifluoro-2-hydroxybutanoyl)-5-azaspiro[2.4]heptane-6-carboxamide]	0.05 to 0.2	–
CC1(C)[C@@H]2[C@@H](C(=O)N[C@@H](C[C@@H]3CCNC3=O)C(=O)COC(F)(F)F)N(C(=O)C(O)CC(F)(F)F)C[C@@H]21 (stereo partly drawn) [Compound 391, (1R,2S,5S)-6,6-dimethyl-N-((S)-3-oxo-1-((S)-2-oxopyrrolidin-3-yl)-4-(trifluoromethoxy)butan-2-yl)-3-(4,4,4-trifluoro-2-hydroxybutanoyl)-3-azabicyclo[3.1.0]-hexane-2-carboxamide]	0.05 to 0.2	–
O=C1NCC[C@H]1C[C@H](NC(=O)[C@@H]1CC2(CC2)CN1C(=O)[C@H](O)CC1CC1)C(=O)COC(F)(F)F [Compound 392, (S)-5-((R)-3-cyclopropyl-2-hydroxypropanoyl)-N-((S)-3-oxo-1-((S)-2-oxopyrrolidin-3-yl)-4-(trifluoromethoxy)butan-2-yl)-5-azaspiro[2.4]heptane-6-carboxamide]	0.05 to 0.2	–
O=C1NCC[C@H]1C[C@H](NC(=O)[C@@H]1[C@H]2CCC[C@H]2CN1C(=O)[C@H](O)CC1CC1)C(=O)COC(F)(F)F [Compound 393, (1S,3aR,6aS)-2-((R)-3-cyclopropyl-2-hydroxypropanoyl)-N-((S)-3-oxo-1-((S)-2-oxopyrrolidin-3-yl)-4-(trifluoromethoxy)butan-2-yl)octahydrocyclo-penta[c]pyrrole-1-carboxamide]	< 0.05	–
CC1(C)[C@@H]2[C@@H](C(=O)N[C@@H](C[C@@H]3CCNC3=O)C(=O)COC(F)(F)F)N(C(=O)[C@@H](O)CC3CC3)C[C@@H]21 [Compound 394, (1R,2S,5S)-3-((S)-3-cyclopropyl-2-hydroxypropanoyl)-6,6-dimethyl-N-((S)-3-oxo-1-((S)-2-oxopyrrolidin-3-yl)-4-(trifluoromethoxy)butan-2-yl)-3-azabicyclo[3.1.0] hexane-2-carboxamide]	< 0.05	–
O=C1NCC[C@H]1C[C@H](NC(=O)[C@@H]1CC2(CC2)CN1C(=O)C(O)CCC(F)(F)F)C(=O)COC(F)(F)F (stereo partly drawn) [Compound 395, (6S)-N-((S)-3-oxo-1-((S)-2-oxopyrrolidin-3-yl)-4-(trifluoromethoxy)butan-2-yl)-5-(5,5,5-trifluoro-2-hydroxypentanoyl)-5-azaspiro[2.4]heptane-6-carboxamide]	0.05 to 0.2	–
CC(C)C[C@H](NC(=O)[C@H](O)CF)C(=O)N[C@@H](C[C@@H]1CCNC1=O)C(=O)COC(F)(F)F [Compound 396, (S)-2-((S)-3-fluoro-2-hydroxypropanamido)-4-methyl-N-((S)-3-oxo-1-((S)-2-oxopyrrolidin-3-yl)-4-(trifluoromethoxy)butan-2-yl)pentanamide]	0.2 to 0.5	–
O=C1NCC[C@H]1C[C@H](NC(=O)[C@@H]1CC2(CC2)CN1C(=O)[C@H](O)CF)C(=O)COC(F)(F)F [Compound 397, (S)-5-((S)-3-fluoro-2-hydroxypropanoyl)-N-((S)-3-oxo-1-((S)-2-oxopyrrolidin-3-yl)-4-(trifluoromethoxy)butan-2-yl)-5-azaspiro[2.4]heptane-6-carboxamide]	0.05 to 0.2	–
O=C1NCC[C@H]1C[C@H](NC(=O)[C@@H]1CC2(CC2)CN1C(=O)[C@H](O)Cc1ccccc1)C(=O)COC(F)(F)F [Compound 398, (S)-5-((R)-2-hydroxy-3-phenylpropanoyl)-N-((S)-3-oxo-1-((S)-2-oxopyrrolidin-3-yl)-4-(trifluoromethoxy)butan-2-yl)-5-azaspiro[2.4]heptane-6-carboxamide]	0.05 to 0.2	–
O=C1NCC[C@H]1C[C@H](NC(=O)[C@@H]1CC2(CC2)CN1C(=O)C(O)c1cc(F)c(F)c(F)c1)C(=O)COC(F)(F)F (stereo partly drawn) [Compound 399, (6S)-5-(2-hydroxy-2-(3,4,5-trifluorophenyl)acetyl)-N-((S)-3-oxo-1-((S)-2-oxopyrrolidin-3-yl)-4-(trifluoromethoxy)butan-2-yl)-5-azaspiro[2.4]heptane-6-carboxamide]	0.05 to 0.2	–
O=C1NCC[C@H]1C[C@H](NC(=O)[C@@H]1CC2(CC2)CN1C(=O)C(O)c1ccc(F)c(F)c1)C(=O)COC(F)(F)F (stereo partly drawn) [Compound 400, (6S)-5-(2-(3,4-difluorophenyl)-2-hydroxyacetyl)-N-((S)-3-oxo-1-((S)-2-oxopyrrolidin-3-yl)-4-(trifluoromethoxy)butan-2-yl)-5-azaspiro[2.4]heptane-6-carboxamide]	0.05 to 0.2	–
CC1(C)[C@@H]2[C@@H](C(=O)N[C@@H](C[C@@H]3CCNC3=O)C(=O)COC(F)(F)F)N(C(=O)C(O)c3ccc(F)c(F)c3)C[C@@H]21 (stereo partly drawn) [Compound 401, (1R,2S,5S)-3-(2-(3,4-difluorophenyl)-2-hydroxyacetyl)-6,6-dimethyl-N-((S)-3-oxo-1-((S)-2-oxopyrrolidin-3-yl)-4-(trifluoromethoxy)butan-2-yl)-3-azabicyclo[3.1.0]hexane-2-carboxamide]	< 0.05	–
O=C1NCC[C@H]1C[C@H](NC(=O)[C@@H]1CC2(CC2)CN1C(=O)C(O)c1ccc(F)cc1F)C(=O)COC(F)(F)F (stereo partly drawn) [Compound 402, (6S)-5-(2-(2,4-difluorophenyl)-2-hydroxyacetyl)-N-((S)-3-oxo-1-((S)-2-oxopyrrolidin-3-yl)-4-(trifluoromethoxy)butan-2-yl)-5-azaspiro[2.4]heptane-6-carboxamide]	–	< 0.05
O=C1NCC[C@H]1C[C@H](NC(=O)[C@@H]1CC2(CC2)CN1C(=O)[C@H](O)c1ccc(F)cc1)C(=O)COC(F)(F)F [Compound 403, (S)-5-((R)-2-(4-fluorophenyl)-2-hydroxyacetyl)-N-((S)-3-oxo-1-((S)-2-oxopyrrolidin-3-yl)-4-(trifluoromethoxy)butan-2-yl)-5-azaspiro[2.4]heptane-6-carboxamide]	–	0.05 to 0.2
O=C1NCC[C@H]1C[C@H](NC(=O)[C@@H]1[C@H]2CCC[C@H]2CN1C(=O)[C@H](O)c1ccc(F)cc1)C(=O)COC(F)(F)F [Compound 404, (1S,3aR,6aS)-2-((R)-2-(4-fluorophenyl)-2-hydroxyacetyl)-N-((S)-3-oxo-1-((S)-2-oxopyrrolidin-3-yl)-4-(trifluoromethoxy)butan-2-yl)octahydrocyclo-penta[c]pyrrole-1-carboxamide]	–	< 0.05
O=C1NCC[C@H]1C[C@H](NC(=O)[C@@H]1CC2(CC2)CN1C(=O)C(O)c1cccc(F)c1)C(=O)COC(F)(F)F (stereo partly drawn) [Compound 405, (6S)-5-(2-(3-fluorophenyl)-2-hydroxyacetyl)-N-((S)-3-oxo-1-((S)-2-oxopyrrolidin-3-yl)-4-(trifluoromethoxy)butan-2-yl)-5-azaspiro[2.4]heptane-6-carboxamide]	–	0.05 to 0.2
O=C1NCC[C@H]1C[C@H](NC(=O)[C@@H]1CC2(CC2)CN1C(=O)C(O)c1ccccc1C(F)(F)F)C(=O)COC(F)(F)F (stereo partly drawn) [Compound 406, (6S)-5-(2-hydroxy-2-(2-(trifluoromethyl)-phenyl)acetyl)-N-((S)-3-oxo-1-((S)-2-oxopyrrolidin-3-yl)-4-(trifluoromethoxy)butan-2-yl)-5-azaspiro[2.4]heptane-6-carboxamide]	–	0.05 to 0.2
CC1(C)[C@@H]2[C@@H](C(=O)N[C@@H](C[C@@H]3CCNC3=O)C(=O)COC(F)(F)F)N(C(=O)[C@H](O)c3ccccc3F)C[C@@H]21 [Compound 407, (1R,2S,5S)-3-((R)-2-(2-fluorophenyl)-2-hydroxyacetyl)-6,6-dimethyl-N-((S)-3-oxo-1-((S)-2-oxopyrrolidin-3-yl)-4-(trifluoromethoxy)butan-2-yl)-3-azabicyclo[3.1.0]hexane-2-carboxamide]	–	< 0.05
CC(C)C[C@H](NC(=O)[C@H](O)c1ccccc1F)C(=O)N[C@@H](C[C@@H]1CCNC1=O)C(=O)COC(F)(F)F [Compound 408, (S)-2-((R)-2-(2-fluorophenyl)-2-hydroxyacetamido)-4-methyl-N-((S)-3-oxo-1-((S)-2-oxopyrrolidin-3-yl)-4-(trifluoromethoxy)butan-2-yl)pentanamide]	–	< 0.05
O=C1NCC[C@H]1C[C@H](NC(=O)[C@@H]1[C@H]2CCC[C@H]2CN1C(=O)[C@H](O)c1ccccc1F)C(=O)COC(F)(F)F [Compound 409, (1S,3aR,6aS)-2-((R)-2-(2-fluorophenyl)-2-hydroxyacetyl)-N-((S)-3-oxo-1-((S)-2-oxopyrrolidin-3-yl)-4-(trifluoromethoxy)butan-2-yl)octahydrocyclo-penta[c]pyrrole-1-carboxamide]	–	< 0.05
O=C1NCC[C@H]1C[C@H](NC(=O)[C@@H]1CC2(CC2)CN1C(=O)[C@H](O)c1ccccc1F)C(=O)COC(F)(F)F [Compound 410, (S)-5-((R)-2-(2-fluorophenyl)-2-hydroxyacetyl)-N-((S)-3-oxo-1-((S)-2-oxopyrrolidin-3-yl)-4-(trifluoromethoxy)butan-2-yl)-5-azaspiro[2.4]heptane-6-carboxamide]	–	0.05 to 0.2
CC1(C)[C@@H]2[C@@H](C(=O)N[C@@H](C[C@@H]3CCNC3=O)C(=O)COC(F)(F)F)N(C(=O)[C@@H](O)c3ccccc3F)C[C@@H]21 [Compound 411, (1R,2S,5S)-3-((S)-2-(2-fluorophenyl)-2-hydroxyacetyl)-6,6-dimethyl-N-((S)-3-oxo-1-((S)-2-oxopyrrolidin-3-yl)-4-(trifluoromethoxy)butan-2-yl)-3-azabicyclo-[3.1.0]hexane-2-carboxamide]	–	< 0.05
O=C1NCC[C@H]1C[C@H](NC(=O)[C@@H]1CC2(CC2)CN1C(=O)[C@H](O)c1ccccc1)C(=O)COC(F)(F)F [Compound 412, (S)-5-((R)-2-hydroxy-2-phenylacetyl)-N-((S)-3-oxo-1-((S)-2-oxopyrrolidin-3-yl)-4-(trifluoromethoxy)butan-2-yl)-5-azaspiro[2.4]-heptane-6-carboxamide]	–	0.05 to 0.2
